From patent publication US12497663B2, “Method of monitoring treatment” (LDN Pharma Limited, priority 2019, dated 2025)

Tested on: CD3+/CD8+ cells (killer T-cells)
Assay: CD69 expression of PBMCs cultured with LDN or NTX (flow cytometry)
Assay type: cell-based
Settings: 48 h
Method: Peripheral-blood mononuclear cells were isolated from whole blood or from the residue product of leukoreduction of whole blood from pathologically healthy donors using Histopaque-1077. The mononuclear fraction was harvested and red blood cell contamination removed by incubation in hypotonic ammonium chloride. Cells were washed in phosphate buffered saline (PBS) and platelet contamination removed by centrifugation at 200 g for 10 min, re-suspended at a concentration of 1×10^6 ml in RPMI-1640 culture medium. […] Peripheral-blood mononuclear cells were washed twice in wash buffer (PBS containing 1% (v/v) FBS and 0.09% (v/v) NaN3), and stained for 30 min at 4° C. with the relevant and stated antibodies for assessment of immune cell profile. Cells were washed in wash buffer and fixed in 4% paraformaldehyde for 20 min at 4° C. Expressions of the surface markers were analysed using a BD Science LSR II Flow Cytometer with dedicated proprietary software.
The activation state of CD3+ cells is indicated by CD69 expression; higher levels of CD69 expression correlate with increased CD3+ activation. CD3+ cells are T cell co-receptors that help to activate both the cytotoxic T cell (CD8+ naive T cells) and also T helper cells (CD4+ naive T cells). […] Thus, when LDN has completed its priming and the gene expressions are as determined in Example 1, the immune system is suitably boosted.

O=C1CC[C@@]2(O)[C@H]3Cc4ccc(O)c5c4[C@@]2(CCN3CC2CC2)[C@H]1O5 [NTX, morphinan-6-one,17-(cyclopropylmethyl)-4,5-epoxy-3,14-dihydroxy-(5a)]
CD69 expression in CD3+/CD8+ cells (10 nM naltrexone (LDN)): increased
CD69 expression in CD3+/CD8+ cells (10 uM naltrexone (NTX)): did not increase
